We go through twelve molecules from ChEMBL document CHEMBL4732242 (Eur J Med Chem, 2021).

Bounds are passed on as bounds.

Assay [1] deals with T1, Dual specificity protein kinase CLK1 (Homo sapiens, UniProt P49759). The assay can be described thus: Inhibition of CLK1 (unknown origin) by NanoBRET cellular target engagement assay.
Assay [2] addresses Mitogen-activated protein kinase kinase kinase 10 (Homo sapiens, UniProt Q02779). The assay can be described thus: Inhibition of MLK2 (unknown origin) by NanoBRET cellular target engagement assay. A general note: In BRET a luciferase serves as donor, and the signal depends on an acceptor being close.
For assay [3], the target named is T2, Dual specificity protein kinase CLK2 (Homo sapiens, UniProt P49760). The assay can be described thus: Inhibition of CLK2 (unknown origin) by NanoBRET cellular target engagement assay.
For assay [4], the target named is T3, Dual specificity protein kinase CLK3 (Homo sapiens, UniProt P49761). The assay can be described thus: Inhibition of CLK3 (unknown origin) by NanoBRET cellular target engagement assay.
Assay [5] deals with T4, Dual specificity protein kinase CLK4 (Homo sapiens, UniProt Q9HAZ1). In words: Inhibition of CLK4 (unknown origin) by NanoBRET cellular target engagement assay.
Assay [6] has as its target Mitogen-activated protein kinase kinase kinase 9 (Homo sapiens, UniProt P80192). In words: Inhibition of MLK1 (unknown origin) by NanoBRET cellular target engagement assay.
For assay [7], the target named is T5, Dual specificity tyrosine-phosphorylation-regulated kinase 2 (Homo sapiens, UniProt Q92630).
T5 sequence (Q92630 whole entry): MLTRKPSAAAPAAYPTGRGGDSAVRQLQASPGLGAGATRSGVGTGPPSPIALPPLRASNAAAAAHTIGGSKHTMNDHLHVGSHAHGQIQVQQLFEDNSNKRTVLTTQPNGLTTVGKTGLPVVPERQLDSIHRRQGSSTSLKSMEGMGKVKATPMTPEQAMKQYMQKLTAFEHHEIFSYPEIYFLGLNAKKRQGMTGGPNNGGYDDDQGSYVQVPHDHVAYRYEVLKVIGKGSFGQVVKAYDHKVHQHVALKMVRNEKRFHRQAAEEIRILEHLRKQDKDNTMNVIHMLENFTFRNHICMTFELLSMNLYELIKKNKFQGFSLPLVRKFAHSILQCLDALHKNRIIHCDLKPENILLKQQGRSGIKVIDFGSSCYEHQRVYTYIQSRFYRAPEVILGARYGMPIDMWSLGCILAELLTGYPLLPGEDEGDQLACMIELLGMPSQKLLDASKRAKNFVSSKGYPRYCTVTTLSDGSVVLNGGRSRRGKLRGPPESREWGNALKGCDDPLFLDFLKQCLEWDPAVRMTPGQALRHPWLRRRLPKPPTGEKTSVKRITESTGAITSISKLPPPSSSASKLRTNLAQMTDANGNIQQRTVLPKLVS
In words: Inhibition of DYRK2 (unknown origin) by NanoBRET cellular target engagement assay.

Assay [8] has as its target T6, Homeodomain-interacting protein kinase 2 (Homo sapiens, UniProt Q9H2X6). The assay can be described thus: Inhibition of HIPK2 (unknown origin) by selectscreen kinase assay.
The next assay has as its system MCF7. The assay can be described thus: Cytotoxicity against human MCF7 cells assessed as reduction in cell viability incubated for 48 hrs by CyQuant assay. To be noted: MCF7, 48 h. The assay is classed as functional, cell-based.
Assay [9] concerns the target Cyclin-dependent kinase-like 3 (Homo sapiens, UniProt Q8IVW4). In words: Inhibition of CDKL3 (unknown origin) by NanoBRET cellular target engagement assay.
Assay [10] addresses T7, Dual specificity tyrosine-phosphorylation-regulated kinase 1B (Homo sapiens, UniProt Q9Y463). The assay can be described thus: Inhibition of DYRK1B (unknown origin) by NanoBRET cellular target engagement assay.
The target in assay [11] is T8, Homeodomain-interacting protein kinase 1 (Homo sapiens, UniProt Q86Z02). In words: Inhibition of human recombinant HIPK1 using myelin substrate by radiometric scintillation assay.
The target of assay [12] is T2, Dual specificity protein kinase CLK2. In words: Inhibition of human recombinant CLK2 using YRRAAVPPSPSLSR substrate by radiometric scintillation assay.
The target in assay [13] is T1, Dual specificity protein kinase CLK1. In words: Inhibition of human recombinant CLK1 using ERMRPRKRQGSVR substrate by radiometric scintillation assay.
Assay [14] has as its target Mitogen-activated protein kinase kinase kinase 11 (Homo sapiens, UniProt Q16584). In words: Inhibition of MLK3 (unknown origin) by NanoBRET cellular target engagement assay.
For assay [15], the target named is T9, Dual specificity tyrosine-phosphorylation-regulated kinase 1A (Homo sapiens, UniProt Q13627). The assay can be described thus: Inhibition of human full length recombinant DYRK1A using RRRFRPASPLRGPP substrate by radiometric scintillation assay.
Assay [16] addresses T10, Homeodomain-interacting protein kinase 3 (Homo sapiens, UniProt Q9H422). The assay can be described thus: Inhibition of human recombinant HIPK3 using myelin substrate by radiometric scintillation assay.
Assay [17] deals with T9, Dual specificity tyrosine-phosphorylation-regulated kinase 1A. In words: Inhibition of DYRK1A (unknown origin) by NanoBRET cellular target engagement assay.
The target of assay [18] is T6, Homeodomain-interacting protein kinase 2. In words: Inhibition of human recombinant HIPK2 using myelin substrate by radiometric scintillation assay.
The target in assay [19] is T5, Dual specificity tyrosine-phosphorylation-regulated kinase 2. In words: Inhibition of human full length recombinant DYRK2 using casein substrate by radiometric scintillation assay.
The target in assay [20] is T3, Dual specificity protein kinase CLK3. In words: Inhibition of human full length recombinant CLK3 using ERMRPRKRQGSVR substrate by radiometric scintillation assay.
Assay [21] deals with T7, Dual specificity tyrosine-phosphorylation-regulated kinase 1B. In words: Inhibition of human full length recombinant DYRK1B using RRRFRPASPLRGPP substrate by radiometric scintillation assay.
The target in assay [22] is T4, Dual specificity protein kinase CLK4. The assay can be described thus: Inhibition of human recombinant CLK4 using YRRAAVPPSPSLS substrate by radiometric scintillation assay.
The target of assay [23] is T10, Homeodomain-interacting protein kinase 3. The assay can be described thus: Inhibition of HIPK3 (unknown origin).
The target in assay [24] is T6, Homeodomain-interacting protein kinase 2. In words: Inhibition of HIPK2 (unknown origin).
Assay [25] addresses T11, Homeodomain-interacting protein kinase 4 (Homo sapiens, UniProt Q8NE63).
T11 sequence (Q8NE63 whole entry): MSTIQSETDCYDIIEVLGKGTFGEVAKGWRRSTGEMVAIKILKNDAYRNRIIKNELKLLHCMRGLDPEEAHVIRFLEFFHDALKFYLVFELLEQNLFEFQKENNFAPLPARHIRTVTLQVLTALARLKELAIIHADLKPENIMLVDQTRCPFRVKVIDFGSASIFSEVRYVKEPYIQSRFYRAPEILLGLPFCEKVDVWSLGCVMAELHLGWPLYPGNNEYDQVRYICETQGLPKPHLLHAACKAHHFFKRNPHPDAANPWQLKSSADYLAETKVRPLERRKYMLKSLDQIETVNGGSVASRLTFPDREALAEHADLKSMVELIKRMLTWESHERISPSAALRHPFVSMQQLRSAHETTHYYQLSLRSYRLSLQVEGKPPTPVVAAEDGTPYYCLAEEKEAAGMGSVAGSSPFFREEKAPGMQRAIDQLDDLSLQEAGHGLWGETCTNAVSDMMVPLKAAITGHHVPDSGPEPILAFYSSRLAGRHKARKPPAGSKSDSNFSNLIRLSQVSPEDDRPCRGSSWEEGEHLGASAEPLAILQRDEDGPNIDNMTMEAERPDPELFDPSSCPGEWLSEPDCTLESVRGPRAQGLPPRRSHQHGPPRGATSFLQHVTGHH
The assay can be described thus: Inhibition of HIPK4 (unknown origin).

In assay [26] the target is T8, Homeodomain-interacting protein kinase 1. In words: Inhibition of HIPK1 (unknown origin).

T10 sequence (Q9H422 whole entry): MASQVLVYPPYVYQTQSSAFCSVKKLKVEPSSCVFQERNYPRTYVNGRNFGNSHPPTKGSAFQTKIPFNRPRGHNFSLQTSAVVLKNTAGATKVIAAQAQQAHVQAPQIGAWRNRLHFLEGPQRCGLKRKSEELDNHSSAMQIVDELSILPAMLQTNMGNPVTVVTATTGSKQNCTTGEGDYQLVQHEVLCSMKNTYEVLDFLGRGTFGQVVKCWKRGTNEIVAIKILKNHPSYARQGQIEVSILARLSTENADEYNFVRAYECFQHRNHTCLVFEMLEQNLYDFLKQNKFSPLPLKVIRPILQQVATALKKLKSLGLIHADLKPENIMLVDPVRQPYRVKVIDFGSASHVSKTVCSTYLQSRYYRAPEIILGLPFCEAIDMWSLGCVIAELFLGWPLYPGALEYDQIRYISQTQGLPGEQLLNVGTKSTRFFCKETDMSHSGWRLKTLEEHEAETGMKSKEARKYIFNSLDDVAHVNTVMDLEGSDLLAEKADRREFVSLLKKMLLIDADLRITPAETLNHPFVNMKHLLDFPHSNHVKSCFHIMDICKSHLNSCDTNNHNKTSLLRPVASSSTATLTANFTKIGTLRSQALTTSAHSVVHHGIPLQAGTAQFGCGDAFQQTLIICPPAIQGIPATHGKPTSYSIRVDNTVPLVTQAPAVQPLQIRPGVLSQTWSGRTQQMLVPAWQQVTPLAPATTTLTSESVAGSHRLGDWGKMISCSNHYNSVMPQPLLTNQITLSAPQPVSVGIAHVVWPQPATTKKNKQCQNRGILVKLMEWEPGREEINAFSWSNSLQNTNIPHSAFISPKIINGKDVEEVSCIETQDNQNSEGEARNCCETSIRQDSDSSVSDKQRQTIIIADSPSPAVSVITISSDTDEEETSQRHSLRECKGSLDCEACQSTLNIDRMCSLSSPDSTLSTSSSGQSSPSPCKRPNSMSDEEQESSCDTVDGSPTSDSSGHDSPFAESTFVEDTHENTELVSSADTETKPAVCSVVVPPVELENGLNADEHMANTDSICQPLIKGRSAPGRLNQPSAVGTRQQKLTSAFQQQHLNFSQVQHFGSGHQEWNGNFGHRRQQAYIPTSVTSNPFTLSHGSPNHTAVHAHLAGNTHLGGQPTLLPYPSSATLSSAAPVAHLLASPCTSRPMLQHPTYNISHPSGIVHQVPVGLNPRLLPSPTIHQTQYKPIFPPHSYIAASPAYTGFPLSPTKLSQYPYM
T3 sequence (P49761 whole entry): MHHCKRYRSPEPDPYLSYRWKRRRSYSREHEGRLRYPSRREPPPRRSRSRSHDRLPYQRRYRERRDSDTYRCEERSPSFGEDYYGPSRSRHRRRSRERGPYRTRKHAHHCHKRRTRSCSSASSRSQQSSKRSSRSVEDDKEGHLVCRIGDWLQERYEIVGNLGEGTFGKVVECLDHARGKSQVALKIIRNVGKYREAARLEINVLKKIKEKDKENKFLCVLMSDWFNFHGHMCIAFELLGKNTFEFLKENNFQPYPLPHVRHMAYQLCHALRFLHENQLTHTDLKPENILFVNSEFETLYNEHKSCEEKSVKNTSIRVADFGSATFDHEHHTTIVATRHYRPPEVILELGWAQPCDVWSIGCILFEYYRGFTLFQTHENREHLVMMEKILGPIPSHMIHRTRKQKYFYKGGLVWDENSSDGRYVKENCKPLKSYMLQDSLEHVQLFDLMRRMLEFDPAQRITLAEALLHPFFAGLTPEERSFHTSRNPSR
Sequence of Mitogen-activated protein kinase kinase kinase 9 (P80192 whole entry): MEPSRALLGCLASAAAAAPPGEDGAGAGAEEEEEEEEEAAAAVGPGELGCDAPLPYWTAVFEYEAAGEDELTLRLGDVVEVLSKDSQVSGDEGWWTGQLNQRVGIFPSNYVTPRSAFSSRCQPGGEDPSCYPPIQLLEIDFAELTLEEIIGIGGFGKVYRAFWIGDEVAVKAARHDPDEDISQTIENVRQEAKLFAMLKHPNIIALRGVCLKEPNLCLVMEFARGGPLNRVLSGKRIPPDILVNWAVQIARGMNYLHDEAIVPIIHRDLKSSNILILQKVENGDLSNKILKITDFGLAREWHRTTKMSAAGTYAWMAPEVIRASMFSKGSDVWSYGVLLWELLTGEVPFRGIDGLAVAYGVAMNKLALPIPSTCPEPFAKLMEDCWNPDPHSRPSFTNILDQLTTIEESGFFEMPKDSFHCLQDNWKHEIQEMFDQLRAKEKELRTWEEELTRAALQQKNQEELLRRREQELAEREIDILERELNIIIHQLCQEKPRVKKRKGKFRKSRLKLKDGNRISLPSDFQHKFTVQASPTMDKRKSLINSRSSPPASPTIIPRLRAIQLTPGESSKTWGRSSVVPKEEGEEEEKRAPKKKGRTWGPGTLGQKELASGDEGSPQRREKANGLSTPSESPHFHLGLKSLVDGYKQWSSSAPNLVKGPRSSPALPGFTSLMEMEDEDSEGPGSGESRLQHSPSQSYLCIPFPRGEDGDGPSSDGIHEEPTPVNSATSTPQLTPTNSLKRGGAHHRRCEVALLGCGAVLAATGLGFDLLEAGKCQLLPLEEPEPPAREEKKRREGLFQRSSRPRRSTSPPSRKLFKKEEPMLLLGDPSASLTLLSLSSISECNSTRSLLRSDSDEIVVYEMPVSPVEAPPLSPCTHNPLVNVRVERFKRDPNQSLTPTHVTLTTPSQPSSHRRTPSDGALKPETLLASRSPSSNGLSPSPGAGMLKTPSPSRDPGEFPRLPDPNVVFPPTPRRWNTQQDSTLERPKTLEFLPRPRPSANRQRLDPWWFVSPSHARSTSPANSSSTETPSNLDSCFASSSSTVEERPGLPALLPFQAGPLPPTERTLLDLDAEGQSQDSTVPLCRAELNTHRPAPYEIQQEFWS
T2 sequence (P49760 whole entry): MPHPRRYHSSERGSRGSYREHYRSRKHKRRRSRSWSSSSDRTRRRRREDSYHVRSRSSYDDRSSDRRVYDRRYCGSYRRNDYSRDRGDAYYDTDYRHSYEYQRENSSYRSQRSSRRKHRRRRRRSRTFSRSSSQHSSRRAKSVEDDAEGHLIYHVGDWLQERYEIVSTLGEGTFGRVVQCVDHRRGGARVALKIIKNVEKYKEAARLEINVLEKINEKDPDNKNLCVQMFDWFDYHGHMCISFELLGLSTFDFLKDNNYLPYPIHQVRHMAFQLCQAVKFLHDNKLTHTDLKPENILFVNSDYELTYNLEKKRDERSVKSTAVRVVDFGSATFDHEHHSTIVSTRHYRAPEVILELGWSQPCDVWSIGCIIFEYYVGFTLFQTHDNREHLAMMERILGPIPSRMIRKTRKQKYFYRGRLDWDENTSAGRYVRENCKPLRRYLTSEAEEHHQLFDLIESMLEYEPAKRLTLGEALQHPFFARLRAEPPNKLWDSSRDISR
T1 sequence (P49759 whole entry): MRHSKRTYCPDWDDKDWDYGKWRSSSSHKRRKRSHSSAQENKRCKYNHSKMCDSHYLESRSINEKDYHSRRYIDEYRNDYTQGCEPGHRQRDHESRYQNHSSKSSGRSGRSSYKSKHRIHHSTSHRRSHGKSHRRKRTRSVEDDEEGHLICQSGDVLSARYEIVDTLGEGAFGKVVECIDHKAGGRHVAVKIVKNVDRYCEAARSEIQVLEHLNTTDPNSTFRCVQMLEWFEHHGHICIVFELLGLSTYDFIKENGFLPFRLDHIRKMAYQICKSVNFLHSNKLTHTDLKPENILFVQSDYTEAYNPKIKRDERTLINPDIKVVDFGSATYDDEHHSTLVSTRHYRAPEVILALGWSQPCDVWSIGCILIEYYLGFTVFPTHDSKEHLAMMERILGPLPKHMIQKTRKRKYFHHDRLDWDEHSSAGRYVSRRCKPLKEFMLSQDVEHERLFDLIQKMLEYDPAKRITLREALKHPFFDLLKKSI
T8 sequence (Q86Z02 whole entry): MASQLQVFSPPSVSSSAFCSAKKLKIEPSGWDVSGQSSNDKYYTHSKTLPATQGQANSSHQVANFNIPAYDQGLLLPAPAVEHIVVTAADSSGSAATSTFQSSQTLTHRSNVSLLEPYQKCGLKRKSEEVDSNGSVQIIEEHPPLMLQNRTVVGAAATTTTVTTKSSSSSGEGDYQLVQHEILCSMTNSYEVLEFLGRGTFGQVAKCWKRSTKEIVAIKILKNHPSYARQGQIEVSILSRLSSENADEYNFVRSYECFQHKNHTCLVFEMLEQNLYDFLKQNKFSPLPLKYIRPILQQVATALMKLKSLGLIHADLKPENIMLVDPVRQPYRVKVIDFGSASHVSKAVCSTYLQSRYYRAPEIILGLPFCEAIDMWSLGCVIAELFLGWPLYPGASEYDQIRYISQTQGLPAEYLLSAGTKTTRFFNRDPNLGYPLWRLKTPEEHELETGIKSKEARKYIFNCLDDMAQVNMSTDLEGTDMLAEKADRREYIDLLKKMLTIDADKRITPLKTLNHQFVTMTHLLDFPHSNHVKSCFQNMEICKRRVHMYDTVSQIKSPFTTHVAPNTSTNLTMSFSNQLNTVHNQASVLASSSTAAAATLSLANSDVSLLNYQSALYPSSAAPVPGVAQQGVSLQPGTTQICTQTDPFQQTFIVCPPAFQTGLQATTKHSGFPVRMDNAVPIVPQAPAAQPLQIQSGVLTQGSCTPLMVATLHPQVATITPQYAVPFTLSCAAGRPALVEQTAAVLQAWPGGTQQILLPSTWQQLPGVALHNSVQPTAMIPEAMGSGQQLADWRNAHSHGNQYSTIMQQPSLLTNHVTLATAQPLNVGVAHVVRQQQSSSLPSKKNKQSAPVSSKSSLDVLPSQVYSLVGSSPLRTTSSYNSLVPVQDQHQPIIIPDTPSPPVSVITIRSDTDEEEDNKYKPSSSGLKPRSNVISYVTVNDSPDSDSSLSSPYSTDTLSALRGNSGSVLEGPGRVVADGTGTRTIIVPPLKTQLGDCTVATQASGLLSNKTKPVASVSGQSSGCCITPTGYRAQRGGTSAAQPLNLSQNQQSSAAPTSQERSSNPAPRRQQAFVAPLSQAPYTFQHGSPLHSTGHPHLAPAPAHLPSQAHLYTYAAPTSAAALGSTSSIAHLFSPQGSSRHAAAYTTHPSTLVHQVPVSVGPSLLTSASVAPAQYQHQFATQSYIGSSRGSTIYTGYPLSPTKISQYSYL

The IC50 is the concentration needed to halve the response being measured. As to `COC(=N)c1nc2ccc3ncnc(Nc4ccc(OC)cc4F)c3c2s1`, the IC50 in assay [1], in [2], in assay [3], in assay [4], in assay [5] and in [6] was greater than 3000 nM each time. Further, in [7], the IC50 was greater than 3000 nM.
Regarding `O=C1NC(=O)/C(=C\c2c[nH]c(=O)c(-c3ccc(N4CCNCC4)nc3)c2)S1`, in assay [8], the midpoint of inhibition, the IC50, lay at 74 nM.
Consider `Cn1cc(-c2ccc3occ(-c4cccc(-c5ccncc5)c4)c3n2)cn1`, for which the IC50 in the assay with MCF7 was 4600 nM.
On to `CC(C)(C)c1ccc(-c2coc3ccc(-c4cn[nH]c4)nc23)cc1`, for which the IC50 in assay [1] was greater than 50000 nM; in assay [9], greater than 50000 nM; in assay [2], greater than 50000 nM; in assay [10] it was greater than 50000 nM; in assay [11] it was 248 nM; in assay [3], 18000 nM. The IC50 in assay [12] was 1430 nM; in [13] it was 946 nM; in [14] it was greater than 50000 nM; in [4], 43000 nM; in [15], greater than 3000 nM; in [16], 476 nM. Further, the half-maximal inhibitory concentration (IC50) is 43000 nM in [17]; 119 nM in [18]; greater than 3000 nM in assay [19]; greater than 3000 nM in [20]; 46000 nM in [5]; greater than 50000 nM in assay [6]. The IC50 was greater than 3000 nM in assay [21], greater than 50000 nM in [7] and 1470 nM in assay [22].
Turning to `CC(C)(C)c1ccc(-c2coc3ccc(-c4cn[nH]n4)nc23)cc1`, the IC50 in assay [1] is greater than 50000 nM; in assay [9], greater than 50000 nM; in assay [2] it was greater than 50000 nM; in assay [10], greater than 50000 nM; in assay [11], 285 nM; in [3], greater than 50000 nM. Besides, the IC50 in assay [12] is greater than 3000 nM; in assay [13], greater than 3000 nM; in [14] it was greater than 50000 nM; in [4], greater than 50000 nM; in [15] it was greater than 3000 nM; in assay [16], 283 nM. In addition, the half-maximal inhibitory concentration (IC50) in assay [17] was greater than 50000 nM; in [18], 123 nM; in assay [19] it was greater than 3000 nM; in assay [20] it was greater than 3000 nM; in assay [5] it was 40000 nM; in assay [6] it was 15000 nM. In addition, the values for the half-inhibitory concentration (IC50) in [21], in assay [7] and in assay [22] were greater than 3000 nM, greater than 50000 nM and greater than 3000 nM, respectively.
In the case of `Cn1cc(-c2ccc3occ(-c4cccc(-c5cn[nH]c5)c4)c3n2)cn1`, the IC50 in assay [11] came to 177 nM; in assay [12], 37 nM; in assay [13], 16 nM; in [15], 139 nM; in assay [16] it was 164 nM; in assay [18], 102 nM. Also, the IC50 in assay [19] was greater than 3000 nM; with MCF7, 30000 nM; in assay [20], 1590 nM; in assay [21] it was 1300 nM; in assay [22] it was 19 nM.
On to `CC(C)(C)c1ccc(-c2coc3ccc(-c4cnn(CCN5CCOCC5)c4)nc23)cc1`, for which the IC50 in assay [11], in assay [12], in [13], in [15], in [16] and in assay [18] was greater than 3000 nM in each case. Moreover, the concentration for half-maximal inhibition (IC50) in assay [19], in assay [20], in assay [21] and in assay [22] was greater than 3000 nM throughout.
On to `Cn1cc(-c2cccc(-c3coc4ccc(-c5cnn(C)c5)nc34)c2)cn1`, for which the IC50 in [11] stood at 209 nM; in assay [12], 16 nM; in assay [13], 18 nM; in assay [15], 147 nM; in assay [16] it was 125 nM; in assay [18], 70 nM. Also, the IC50 is 771 nM in [19]; greater than 100000 nM in the assay on MCF7; greater than 3000 nM in [20]; 2420 nM in assay [21]; 17 nM in assay [22].
As for `O=C(Nc1c[nH]nc1-c1nc2cc(CN3CCOCC3)ccc2[nH]1)NC1CC1` [AT-9283], the concentration for half-maximal inhibition (IC50) in [9] was 1100 nM; in assay [7], 570 nM.
As for `COc1cc2c(Oc3ccc(NC(=O)C4(C(=O)Nc5ccc(F)cc5)CC4)cc3F)ccnc2cc1OCCCN1CCOCC1` [FORETINIB], the IC50 in assay [23] and in assay [24] was 100 nM each time.
Take `Cc1[nH]c(/C=C2\C(=O)Nc3ccc(S(=O)(=O)Cc4c(Cl)cccc4Cl)cc32)c(C)c1C(=O)N1CCC[C@@H]1CN1CCCC1` [PHA-665752]: the IC50 in [23], in [25] and in assay [26] was 100 nM throughout.
The molecule `CN(C)C[C@@H]1CCn2cc(c3ccccc32)C2=C(C(=O)NC2=O)c2cn(c3ccccc23)CCO1` [RUBOXISTAURIN] yielded a concentration for half-maximal inhibition (IC50) in assay [23] of 100 nM.
